# Source: US9440913B2, “Dihydroxybenzene derivatives and antiprotozoal agent comprising same as active ingredient” (NAI INC., priority 2010, dated 2016)
# Like-named read-outs stand apart in the source and are kept apart here.
# What was measured:
# [1] = target: Cryptosporidium cyanide insensitive oxidase (AOX), recombinant protein (cCpAOX) (Cryptosporidium parvum, UniProt Q761U6); experiment: CpAOX enzyme inhibition; assay type: biochemical
# Description: Cryptosporidium has found to have cyanide insensitive oxidase (AOX), and its inhibitory activity was observed using its recombinant protein (cCpAOX) produced in E. coli.
# [2] = test system: T. b. rhodesiense IL1501; experiment: Antiprotozoal effect, MIC measurement in HMI-9 culture; assay type: cell-based; settings: for MIC: Trypanosoma brucei, RHODESIENSE, 24 h, bloodstream forms, 18 + 6 hours culture
# Description: T. b. rhodesiense IL1501, the human infectious protozoan that causes acute symptoms, was used as a Trypanosomatid protozoan. The bloodstream forms of protozoan can be cultured in a HMI-9 culture medium (Hirumi, 1989). The protozoan was always cultured at a temperature of 37° C. in the presence of 5% CO2.
# In a microtiter plate (96-well, FALCON 3072), HMI-9 culture medium and HMI-9 culture medium plus glycerol added to make a final concentration of 8.33 mM are separately prepared. 89 μL of the preparation are put into only the first well, and a 60 μL aliquot of each the other wells. 1 μL of a solution of AF or a AF derivative dissolved in DMSO was added to the first well, and was then suspended. A 30 μL aliquot of the suspension was then collected, was transferred to the second well, and was suspended. These operations were repeated in this order to prepare a three-fold dilution series of drug. A 40 μL aliquot of a protozoan culture was added to each well to make a final concentration of 5×10^4 cells/well (a final concentration of glycerol of 5 mM) followed by 18-hours culturing under conditions of 37° C. and 5% CO2. (For EC50 measurement, a 10 μL aliquot of Alamar Blue was added to each well), culturing was carried out under the same conditions for 6 more hours, surviving protozoans were visually observed with a microscope. The concentration at which no motile surviving protozoan was observed was defined as MIC.
# [3] = target: T1, recombinant Trypanosome AOX (TAO) enzyme (Trypanosoma brucei brucei, UniProt Q26710); experiment: TAO enzyme inhibition (quinol oxidase activity, ubiquinol-1 substrate); assay type: biochemical, T. brucei brucei; settings: TAO-expressing E. coli membrane fraction, 25° C., ubiquinol-1, absorbance at 278 nm
# T1 construct: made in house; host or cells: Escherichia coli (membrane fraction)
# T1 sequence (Q26710 whole entry): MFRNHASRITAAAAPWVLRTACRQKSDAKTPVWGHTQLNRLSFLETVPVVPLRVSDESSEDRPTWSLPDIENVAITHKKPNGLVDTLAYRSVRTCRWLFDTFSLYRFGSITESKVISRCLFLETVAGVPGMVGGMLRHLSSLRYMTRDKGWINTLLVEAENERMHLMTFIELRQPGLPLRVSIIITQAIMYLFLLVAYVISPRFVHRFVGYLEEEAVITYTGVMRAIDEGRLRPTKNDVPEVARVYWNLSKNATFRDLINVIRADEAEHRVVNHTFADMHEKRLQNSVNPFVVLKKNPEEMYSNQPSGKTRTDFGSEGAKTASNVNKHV
# Description: Escherichia coli membrane fractions that express TAO by a plasmid harboring TAO cDNA cloned from T. brucei brucei (Fukai, Comparative Biochemistry & Physiology, 124, 141-148, 1999) were used as a recombinant Trypanosome AOX (TAO) enzyme. 50 mM Tris-HCl (pH 7.5), TAO-expressing membrane fraction (0.35 ng), and […] of an inhibitor were mixed in a 1 mL cuvette, and the mixture was incubated at 25° C. for 4 minutes. Ubiquinol-1 as a substrate was then added to the mixture to initiated the reaction, and change in absorbance at 278 nm was monitored (Shimadzu UV-3000, molar absorption coefficient ε=15 cm^−1 mM^−1).
# [4] = Glycerol (+), final concentration of glycerol of 5 mM
# Sequence of Cryptosporidium cyanide insensitive oxidase (AOX), recombinant protein (cCpAOX) (Q761U6 entry or part of it): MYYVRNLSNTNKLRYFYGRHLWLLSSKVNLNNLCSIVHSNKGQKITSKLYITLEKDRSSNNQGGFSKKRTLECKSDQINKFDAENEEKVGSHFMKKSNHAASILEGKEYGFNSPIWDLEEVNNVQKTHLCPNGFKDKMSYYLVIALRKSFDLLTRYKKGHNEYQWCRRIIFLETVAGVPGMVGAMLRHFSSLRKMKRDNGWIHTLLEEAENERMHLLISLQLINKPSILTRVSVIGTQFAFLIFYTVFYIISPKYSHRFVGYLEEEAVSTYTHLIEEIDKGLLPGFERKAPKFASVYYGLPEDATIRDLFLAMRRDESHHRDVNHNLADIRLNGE
SMILES,IC50 [3] [nM],melting point [°C],other results
"CC(/C=C/C(=O)C(C)(C)C)=C\CC/C(C)=C/Cc1c(O)c(Cl)c(C)c(C=O)c1O [Compound 273-12, 3-Chloro-4,6-dihydroxy-2-methyl-5-[(2E,6E,8E)-3,7,11,11-tetramethyl-10-oxo-2,6,8-dodecatrienyl]benzaldehyde]",0.23,,"IC50 [1]: 2.2 nM; MIC [2, 4]: 1.9 nM; MIC ([2]; Glycerol (−)): 3.7 nM"
"Cc1c(Cl)c(O)c(CCCCCCCOC(=O)C(C)(C)C)c(O)c1C#N [Compound 193-11-OPiv, 7-(3-Chloro-5-cyano-2,6-dihydroxy-4-methylphenyl)heptyl pivalate]",6,67 to 68,
"Cc1c(Cl)c(O)c(CCCCCCCCCC(=O)OCC2COC(=O)O2)c(O)c1C=O (stereo not drawn) [Compound 501-16-G, 1,3 Dioxolane-2-oxo-4-methyl 10-(3-chloro-5-formyl-2,6-dihydroxy-4-methylphenyl)decanoate]",0.32,70 to 72,"MIC [2, 4]: 1800 nM; MIC ([2]; Glycerol (−)): 14000 nM"
"CC(=O)c1c(C)c(Cl)c(O)c(C/C=C(\C)CCC=C(C)C)c1O [Compound 173, (E)-3-Chloro-4,6-dihydroxy-5-(3,7-dimethyl-2,6-octadienyl)-2-methylacetophenone]",0.15,57 to 58,"Antiprotozoal Effect (MIC) Glycerol (+) ([2]; Glycerol (+), final concentration of glycerol of 5 mM, cell prints its own unit fM): 800 fM; MIC ([2]; Glycerol (−)): 1.4 nM"
"C/C(C=O)=C\CC/C(C)=C/Cc1c(O)c(Cl)c(C)c(C=O)c1O [Compound 274-9, 3-Chloro-5-[(2E,6E)-3,7-dimethyl-8-oxo-2,6-octadienyl]-4,6-dihydroxy-2-methylbenzaldehyde]",0.3,111.2 to 111.4,
"Cc1c(Cl)c(O)c(CCCCCCCCCOC(=O)C(C)(C)C)c(O)c1C=O [Compound 215-13-OPiv, 9-(3-Chloro-5-formyl-2,6-dihydroxy-4-methylphenyl)nonyl pivalate]",0.22,62,"MIC [2, 4]: 0.0081 nM; MIC ([2]; Glycerol (−)): 280 nM"
"C/C(=C\CC/C(C)=C/Cc1c(O)c(Cl)c(C)c(C=O)c1O)CO [Compound 236-9-OH, 3-Chloro-4,6-dihydroxy-5-[(2E,6E)-8-hydroxy-3,7-dimethyl-2,6-octadienyl]-2-methylbenzaldehyde]",0.3,99 to 99.7,
"Cc1c(Cl)c(O)c(CCCCCCCC2CC(=O)C(C)(C)O2)c(O)c1C=O (stereo not drawn) [Compound 250, 5-Chloro-2,4-dihydroxy-6-methyl-3-[7-(3,3-dimethyl-4-oxo-2-oxacyclopentyl)heptyl]benzaldehyde]",0.5,70 to 71,"MIC [2, 4]: 0.78 nM; MIC ([2]; Glycerol (−)): 12 nM"
"Cc1c(Cl)c(O)c(CCC(C)CCCCOC(=O)C(C)(C)C)c(O)c1C=O (stereo not drawn) [Compound 265-11-OPiv, 7-(3-Chloro-2,6-dihydroxy-5-formyl-4-methylphenyl)-5-methylheptyl pivalate]",0.36,,IC50 [1]: 2.3 nM
"Cc1c(Cl)c(O)c(CCCCCCCC(=O)O)c(O)c1C=O [Compound 215-9-COOH, 8-(3-Chloro-5-formyl-2,6-dihydroxy-4-methylphenyl)octanoic acid]",,149 to 150,
"C/C(=C\Cc1c(O)c(Cl)c(C)c(C=O)c1O)CC/C=C(\C)CCC1OC1(C)C (stereo not drawn) [Compound 281-12, 3-Chloro-5-[(2E,6E)-3,7-dimethyl-9-(3,3-dimethyloxiran-2-yl)-2,6-nonadienyl]-4,6-dihydroxy-2-methylbenzaldehyde]",0.21,36 to 37,
"Cc1c(Cl)c(O)c(CCCCCCCCOC(=O)C(C)C)c(O)c1C=O [Compound 215-12-OCOiPr, 8-(3-Chloro-5-formyl-2,6-dihydroxy-4-methylphenyl)octyl isobutylate]",0.29,,"IC50 ([1]; recombinant protein produced in E. coli, read-out: CpAOX enzyme inhibition (IC50:nM)): 3.7 nM"
"CCCCCC(C)CCc1c(O)c(Cl)c(C)c(C=O)c1O (stereo not drawn) [Compound 265-8, 3-Chloro-4,6-dihydroxy-2-methyl-5-(3-methyloctyl)benzaldehyde]",0.18,65 to 67,"MIC [2, 4]: 0.011 nM; MIC ([2]; Glycerol (−)): 0.46 nM"
"Cc1c(Cl)c(O)c(/C=C/CCCCCCOC(=O)C(C)(C)C)c(O)c1C=O [Compound 200-12-OPiv, (E)-8-(3-Chloro-5-formyl-2,6-dihydroxy-4-methylphenyl)-7-octenyl pivalate]",0.7,57 to 58,
"CC(C)=CCC/C(C)=C/Cc1c(O)c(Cl)cc(C=O)c1O [Compound 224, (E)-5-Chloro-2,4-dihydroxy-3-(3,7-dimethyl-2,6-octadienyl)benzaldehyde]",,94 to 95,
"Cc1c(Cl)c(O)c(CCCCCCCCCCCC(=O)O)c(O)c1C=O [Compound 215-13-COOH, 12-(3-Chloro-5-formyl-2,6-dihydroxy-4-methylphenyl)dodecanoic acid]",4.2,130 to 131,
"C/C(=C\Cc1c(O)c(Cl)c(C)c(C=O)c1O)CC/C=C(\C)COC1CCCO1 (stereo not drawn) [Compound 236-12-OTHF, 3-Chloro-5-[(2E,6E)-3,7-dimethyl-8-(tetrahydrofuran-2-yloxy)-2,6-octadienyl]-4,6-dihydroxy-2-methylbenzaldehyde]",0.12,35 to 36,
"CCC(=O)OCCCCCCC/C=C/c1c(O)c(Cl)c(C)c(C=O)c1O [Compound 200-13-OCOEt, (E)-9-(3-Chloro-5-formyl-2,6-dihydroxy-4-methylphenyl)-8-nonenyl propionate]",0.3,72 to 73,
"CCOC(=O)CCCCCCCCCCCc1c(O)c(Cl)c(C)c(C=O)c1O [Compound 215-15-COOEt, Ethyl 12-(3-chloro-5-formyl-2,6-dihydroxy-4-methylphenyl)dodecanoate]",0.3,,IC50 [1]: 1.8 nM
"C/C(=C\Cc1c(O)c(Cl)cc(C=O)c1O)CC/C=C(\C)C1CC(=O)C(C)(C)O1 (stereo not drawn) [Compound 209, 5-Chloro-2,4-dihydroxy-3-[(2E,6E)-7-(5,5-dimethyl-4-oxotetrahydrohuran-2-yl)-3,7-dimethyl-2,6-heptadienyl]benzaldehyde]",0.2,70 to 72,
COC(=O)c1cc(Cl)c(O)c(C/C=C(\C)CCC=C(C)C)c1O,,71,
"CC(=O)c1c(C)c(Cl)c(O)c(C/C=C(\C)CC/C=C(\C)CCC=C(C)C)c1O [Compound 282-12, (E,E)-3-Chloro-4,6-dihydroxy 5-(3,7,11-trimethyl-2,6,10-dodecathenyl)-2-methylacetophenone]",0.15,92 to 93,"MIC [2, 4]: 11 nM; MIC ([2]; Glycerol (−)): 19 nM"
"Cc1c(Cl)c(O)c(CCC(C)CCCC(C)COC(=O)C(C)(C)C)c(O)c1C=O (stereo not drawn) [Compound 235-12-OPiv, 8-(3-Chloro-5-formyl-2,6-dihydroxy-4-methylphenyl)-2,6-dimethyloctyl pivalate]",,,IC50 [1]: 2.3 nM
"CC(C)=CCCC#CCc1c(O)c(Cl)c(C)c(C=O)c1O [Compound 285-8, 3-Chloro-4,6-dihydroxy-2-methyl-5-(7-methyl-6-octen-2-ynyl)benzaldehyde]",0.3,138,
"CCCCCC(C)=CCc1c(O)c(Cl)c(C)c(C(C)=O)c1O (mixture of isomers) [Compound 268-8, (E/Z)-3-Chloro-4,6-dihydroxy-2-methyl-5-(3-methyl-2-octenyl)acetophenone]",0.55,42 to 46,"MIC [2, 4]: 0.28 nM; MIC ([2]; Glycerol (−)): 14.7 nM"
"COCOC/C(C)=C/CC/C(C)=C/Cc1c(O)c(Cl)c(C)c(C=O)c1O [Compound 236-12-OMOM, 3-Chloro-5-[(2E,6E)-3,7-dimethyl-8-(methoxymethoxy)-2,6-octadienyl]-4,6-dihydroxy-2-methylbenzaldehyde]",0.12,49 to 50,
"C/C(=C\Cc1c(O)c(Cl)c(C)c(C=O)c1O)CC/C=C(\C)C1OC(C)C(C)O1 (stereo not drawn) [Compound 509-11, 3-Chloro-5-((2E,6E)-7-(4,5-dimethyl-1,3-dioxolane-2-yl)-3-methyl-2,6-octadienyl)-4,6-dihydroxy-2-methylbenzaldehyde]",0.3,35 to 36,
